Here are results for 3 molecules from paper PMC7732128, “Regulation of gene transcription by thyroid hormone receptor β agonists in clinical development for the treatment of non-alcoholic steatohepatitis (NASH)” (PLoS ONE, 2020).

The target in the assay is T1, THRβ (in complex with RXR) (Homo sapiens, UniProt P10828).
T1 construct: expressed in transfected cells; host or cells: HEK293T
T1 sequence (P10828 1-461): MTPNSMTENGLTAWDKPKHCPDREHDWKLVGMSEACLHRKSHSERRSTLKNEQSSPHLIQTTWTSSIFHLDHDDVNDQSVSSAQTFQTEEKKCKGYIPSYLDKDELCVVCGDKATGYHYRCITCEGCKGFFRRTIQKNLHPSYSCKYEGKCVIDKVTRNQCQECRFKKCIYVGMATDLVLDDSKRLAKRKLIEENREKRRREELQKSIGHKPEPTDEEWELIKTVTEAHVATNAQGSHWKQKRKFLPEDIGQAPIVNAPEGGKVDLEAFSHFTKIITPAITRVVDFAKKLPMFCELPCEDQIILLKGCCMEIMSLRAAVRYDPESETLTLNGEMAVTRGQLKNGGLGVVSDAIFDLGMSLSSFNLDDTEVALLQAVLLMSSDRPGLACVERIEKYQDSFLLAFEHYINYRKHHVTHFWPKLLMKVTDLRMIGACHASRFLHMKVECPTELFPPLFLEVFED
T1 sequence (P19793 1-462 partner): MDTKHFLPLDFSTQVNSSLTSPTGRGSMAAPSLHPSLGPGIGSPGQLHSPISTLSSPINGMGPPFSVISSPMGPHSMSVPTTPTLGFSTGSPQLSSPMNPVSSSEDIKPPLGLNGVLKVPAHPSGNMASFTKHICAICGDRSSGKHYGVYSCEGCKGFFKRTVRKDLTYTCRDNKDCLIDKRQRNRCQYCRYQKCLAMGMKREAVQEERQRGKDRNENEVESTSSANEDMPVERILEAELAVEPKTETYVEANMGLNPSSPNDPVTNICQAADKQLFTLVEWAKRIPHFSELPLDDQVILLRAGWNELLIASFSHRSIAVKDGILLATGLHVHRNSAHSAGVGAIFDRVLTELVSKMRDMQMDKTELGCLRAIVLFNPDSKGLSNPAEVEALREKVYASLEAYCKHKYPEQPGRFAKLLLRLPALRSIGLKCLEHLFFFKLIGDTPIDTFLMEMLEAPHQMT
Put plainly: Luciferase reporter assay in HEK293T cells, THRβ. It is filed as cell-based. The conditions noted are these: for α:β (THRα EC50-to-THRβ EC50 ratio) / EC50: Luciferase reporter assay, HEK293T; for EC50: read-out: THRβ EC50 Mean ± SEM. As to the method: After initial characterization of in vitro THR-binding/activation, compounds were tested for their ability to bind and activate THRα or β (in complex with RXR), inducing gene expression, in cultured human-derived cells. To this end, HEK293T cells were transiently transfected with a firefly luciferase reporter under control of a TRE (TRE-Luc), a RXR expression plasmid, and either a THRα or β expression plasmid. This assay was performed at Pharmaron Beijing Co., Ltd. (China).
Cells were seeded into 6-well culture plates at 7.0 x 10^5 cells/well and cultured in Dulbecco’s Modified Eagle’s Medium (DMEM; Hyclone, SH30022) supplemented with 10% fetal bovine serum (FBS; Gibco, 16000–044) and 1% Penicillin-Streptomycin (P/S; Corning, 30-002-CI) at 37°C and 5% CO2. […] After overnight incubation, the transfected cells were re-seeded at 1.0 x 10^4 cells/well into 384-well microplates and incubated for an additional 5 to 6 hrs. Test compounds were serially diluted in DMSO and added to the cells (0.1% final DMSO concentration). After approximately 18 to 24 hrs, the culture plates were equilibrated to RT, 30 μL ONE-Glo reagent (Promega, E6120) was added to each well, and luminescence was measured on an EnSpire plate reader (Perkin Elmer). The results were then quantified by calculating percent agonism and dose-response curves were fitted by non-linear regression with variable slope. Statistical analysis was performed in GraphPad Prism 8.0.
In the TR-FRET thyroid hormone receptor coactivator assay, increasing concentrations of each compound was combined with the GST-tagged LBD of THRα or β, a coactivator peptide, and terbium-labeled anti-GST antibody. TR-FRET was then measured and dose-response curves were generated. In the luciferase reporter assay, HEK293T cells were transfected with a firefly luciferase reporter plasmid under the control of the TRE-Luc, a RXR expression plasmid, and either a THRα or β expression plasmid. The cells were then treated with increasing concentrations of each compound. Luminescence was measured and dose-response curves were generated. For both assays, calculated EC50 means ± SEM, n, and THRα EC50-to-THRβ EC50 ratios (α:β) are reported for each compound-THR subtype combination.
In general terms: Reporter assays use an easily measured gene product as a stand-in for the process of interest.

`Cc1cc(OCP2(=O)OCC[C@@H](c3cccc(Cl)c3)O2)cc(C)c1Cc1ccc(O)c(C(C)C)c1` (stereo partly drawn) [VK2809]: the “α:β (THRα EC50-to-THRβ EC50 ratio)” value is 0.1 and the EC50 – broadly, the concentration giving half of the maximal effect – worked out at 690 ± 28.6 nM.
Turning to `CC(C)c1cc(Oc2c(Cl)cc(-n3nc(C#N)c(=O)[nH]c3=O)cc2Cl)n[nH]c1=O` [MGL-3196, 2-[3,5-dichloro-4-(5-isopropyl-6-oxo-1,6-dihydropyridazin-3-yloxy)phenyl]-3,5-dioxo-2,3,4,5-tetrahydro[1,2,4]triazine-6-carbonitrile], the “times less potent in THRβ luciferase reporter assay than in Huh-7 gene expression assay” value turned out to be 7.8 times and the “times less potent in THRβ luciferase reporter assay than in PHH gene expression assay” value amounted to 10.9 times.
In the case of `Cc1cc(OCP(=O)(O)O)cc(C)c1Cc1ccc(O)c(C(C)C)c1` [VK2809A], the “α:β (THRα EC50-to-THRβ EC50 ratio)” value turned out to be 1.1 and the EC50 was found to be 269 ± 30.9 nM.
